Experiments:
[1] = tested on: Human immunodeficiency virus 1; assay: Antiviral activity against HIV1 harbouring deltaV370/T371A mutant infected in human MT2 cells measured after 4 to 5 days by dual-luciferase reporter assay; type: functional, organism-based; conditions: mt2
[2] = AUC in rat at 5 mg/kg, po; type: ADME, organism-based; design: dose 5 mg/kg, route po; conditions: in vivo
[3] = tested on: Human immunodeficiency virus 1; assay: Antiviral activity against HIV1 wild type subtype B NL (4 to 3) harbouring V362/Q369/V370/T371 transfected in human HEK293T cells by dual-luciferase reporter assay; type: functional, organism-based; conditions: Human immunodeficiency virus 1, HEK-293T
[4] = tested on: Human immunodeficiency virus 1; assay: Antiviral activity against HIV1 wild type subtype C NL (4 to 3) transfected in human HEK293T cells by dual-luciferase reporter assay; type: functional, organism-based; conditions: Human immunodeficiency virus 1, HEK-293T
[5] = tested on: Human immunodeficiency virus 1; assay: Antiviral activity against HIV1 NL (4 to 3) harbouring V362I mutant transfected in human HEK293T cells by dual-luciferase reporter assay; type: functional, organism-based; conditions: Human immunodeficiency virus 1, HEK-293T
[6] = tested on: Human immunodeficiency virus 1; assay: Antiviral activity against HIV1 NL (4 to 3) harbouring V362I/deltaV370 mutant transfected in human HEK293T cells by dual-luciferase reporter assay; type: functional, organism-based; conditions: Human immunodeficiency virus 1, HEK-293T
[7] = Half life in overnight fasted mouse at 1 mg/kg, iv; type: ADME, organism-based; conditions: in vivo
[8] = Half life in overnight fasted Beagle dog at 1 mg/kg, iv; type: ADME, organism-based, Canis lupus familiaris; conditions: in vivo
[9] = Volume of distribution at steady state in overnight fasted mouse at 5 mg/kg, po or 1 mg/kg, iv; type: ADME, organism-based; conditions: in vivo
[10] = Volume of distribution at steady state in overnight fasted Sprague-Dawley rat at 5 mg/kg, po or 1 mg/kg, iv; type: ADME, organism-based; conditions: in vivo
[11] = Volume of distribution at steady state in overnight fasted cynomolgus monkey at 2 mg/kg, po or 1 mg/kg, iv; type: ADME, organism-based, Macaca fascicularis; conditions: in vivo
[12] = Oral bioavailability in overnight fasted mouse using spray-dried dispersion at 5 mg/kg; type: ADME, organism-based; conditions: in vivo
[13] = Oral bioavailability in overnight fasted Beagle dog using spray-dried dispersion at 2 mg/kg; type: ADME, organism-based, Canis lupus familiaris; conditions: in vivo
[14] = Oral bioavailability in overnight fasted cynomolgus monkey using spray-dried dispersion at 2 mg/kg; type: ADME, organism-based, Macaca fascicularis; conditions: in vivo
[15] = AUC(0 to t) in overnight fasted mouse at 5 mg/kg, po or 1 mg/kg, iv; type: ADME, organism-based; design: dose 5 mg/kg, route po; conditions: in vivo
[16] = AUC(0 to t) in overnight fasted Beagle dog at 2 mg/kg, po or 1 mg/kg, iv; type: ADME, organism-based, Canis lupus familiaris; design: dose 2 mg/kg, route po; conditions: in vivo
[17] = AUC(0 to t) in overnight fasted cynomolgus monkey at 2 mg/kg, po or 1 mg/kg, iv; type: ADME, organism-based, Macaca fascicularis; design: dose 2 mg/kg, route po; conditions: in vivo
[18] = Cmax in overnight fasted mouse at 5 mg/kg, po or 1 mg/kg, iv; type: ADME, organism-based; design: dose 5 mg/kg, route po; conditions: in vivo
[19] = Cmax in overnight fasted Beagle dog at 2 mg/kg, po or 1 mg/kg, iv; type: ADME, organism-based, Canis lupus familiaris; design: dose 2 mg/kg, route po; conditions: in vivo
[20] = Cmax in overnight fasted cynomolgus monkey at 2 mg/kg, po or 1 mg/kg, iv; type: ADME, organism-based, Macaca fascicularis; design: dose 2 mg/kg, route po; conditions: in vivo
[21] = tested on: Human immunodeficiency virus 1; assay: Antiviral activity against HIV1 virus harboring NL (4 to 3) harbouring […]/V370A mutant transfected in human HEK293T cells by luciferase reporter assay; type: functional, organism-based; conditions: Human immunodeficiency virus 1, HEK-293T
[22] = Metabolic stability in human liver microsomes assessed as half life in presence of NADPH at 0.5 uM by LC-MS/MS analysis; type: ADME, Microsome
[23] = Metabolic stability in mouse liver microsomes assessed as half life in presence of NADPH at 0.5 uM by LC-MS/MS analysis; type: ADME, Microsome
[24] = Metabolic stability in dog liver microsomes assessed as half life in presence of NADPH at 0.5 uM by LC-MS/MS analysis; type: ADME, Canis lupus familiaris, Microsome
[25] = Metabolic stability in rat liver microsomes assessed as half life in presence of NADPH at 0.5 uM by LC-MS/MS analysis; type: ADME, Microsome
[26] = Metabolic stability in cynomolgus monkey liver microsomes assessed as half life in presence of NADPH at 0.5 uM by LC-MS/MS analysis; type: ADME, Macaca fascicularis, Microsome
Cytochrome P450 1A2 = molecular target: T1, Cytochrome P450 1A2 (Homo sapiens, UniProt P05177); assay: Inhibition of CYP1A2 (unknown origin); type: ADME
T1 sequence (P05177 whole entry): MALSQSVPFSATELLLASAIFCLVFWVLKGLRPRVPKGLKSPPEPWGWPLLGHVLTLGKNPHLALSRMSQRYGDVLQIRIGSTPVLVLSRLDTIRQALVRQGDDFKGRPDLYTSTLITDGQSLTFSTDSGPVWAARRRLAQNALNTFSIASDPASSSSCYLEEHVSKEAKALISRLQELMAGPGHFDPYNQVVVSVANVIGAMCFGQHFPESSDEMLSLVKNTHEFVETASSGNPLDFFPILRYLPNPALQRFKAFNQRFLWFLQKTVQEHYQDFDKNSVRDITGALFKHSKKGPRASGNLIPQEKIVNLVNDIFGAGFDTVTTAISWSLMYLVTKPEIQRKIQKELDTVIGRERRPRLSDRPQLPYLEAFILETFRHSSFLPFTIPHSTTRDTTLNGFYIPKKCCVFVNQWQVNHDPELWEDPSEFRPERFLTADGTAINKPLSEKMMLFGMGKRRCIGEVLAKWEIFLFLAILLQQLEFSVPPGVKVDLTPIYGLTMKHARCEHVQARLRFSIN

Cytochrome P450 2C19 = Cytochrome P450 2C19 (Homo sapiens, UniProt P33261); assay: Inhibition of CYP2C19 (unknown origin); type: ADME
[27] = Lipophilicity, log D of the compound at pH 6.5; type: physicochemical; conditions: buffer
CYP3A4 = CYP3A4 (Homo sapiens, UniProt P08684); assay: Induction of CYP3A4 in human hepatocyte; type: ADME, cell-based; conditions: hepatocytes
[28] = molecular target: T2, UDP-glucuronosyltransferase 1A1 (Homo sapiens, UniProt P22309); assay: Inhibition of UGT1A1(unknown origin)
T2 sequence (P22309 whole entry): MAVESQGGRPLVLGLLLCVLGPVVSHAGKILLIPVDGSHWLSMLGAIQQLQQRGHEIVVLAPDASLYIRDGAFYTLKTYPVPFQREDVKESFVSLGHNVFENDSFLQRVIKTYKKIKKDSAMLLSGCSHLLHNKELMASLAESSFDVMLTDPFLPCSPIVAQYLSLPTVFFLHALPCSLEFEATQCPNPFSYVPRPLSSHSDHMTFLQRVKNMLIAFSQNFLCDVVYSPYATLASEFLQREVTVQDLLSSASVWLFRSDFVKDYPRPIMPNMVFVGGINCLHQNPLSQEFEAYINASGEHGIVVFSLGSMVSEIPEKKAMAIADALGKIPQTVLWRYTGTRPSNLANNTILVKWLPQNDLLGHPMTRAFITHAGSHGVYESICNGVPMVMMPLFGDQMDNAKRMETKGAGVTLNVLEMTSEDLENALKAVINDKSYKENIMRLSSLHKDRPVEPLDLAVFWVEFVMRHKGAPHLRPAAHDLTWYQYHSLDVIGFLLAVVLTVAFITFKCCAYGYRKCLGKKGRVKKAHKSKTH

[29] = Drug concentration in overnight fasted Beagle dog plasma at 2 mg/kg, po or 1 mg/kg, iv measured after 24 hrs; type: ADME, organism-based, Canis lupus familiaris
[30] = Drug concentration in overnight fasted cynomolgus monkey plasma at 2 mg/kg, po or 1 mg/kg, iv measured after 24 hrs; type: ADME, organism-based, Macaca fascicularis
[31] = Binding affinity to HIV1 wild type Gag assessed as dissociation constant; design: species or system Human immunodeficiency virus 1

Chain of Cytochrome P450 2C19 (P33261 whole entry): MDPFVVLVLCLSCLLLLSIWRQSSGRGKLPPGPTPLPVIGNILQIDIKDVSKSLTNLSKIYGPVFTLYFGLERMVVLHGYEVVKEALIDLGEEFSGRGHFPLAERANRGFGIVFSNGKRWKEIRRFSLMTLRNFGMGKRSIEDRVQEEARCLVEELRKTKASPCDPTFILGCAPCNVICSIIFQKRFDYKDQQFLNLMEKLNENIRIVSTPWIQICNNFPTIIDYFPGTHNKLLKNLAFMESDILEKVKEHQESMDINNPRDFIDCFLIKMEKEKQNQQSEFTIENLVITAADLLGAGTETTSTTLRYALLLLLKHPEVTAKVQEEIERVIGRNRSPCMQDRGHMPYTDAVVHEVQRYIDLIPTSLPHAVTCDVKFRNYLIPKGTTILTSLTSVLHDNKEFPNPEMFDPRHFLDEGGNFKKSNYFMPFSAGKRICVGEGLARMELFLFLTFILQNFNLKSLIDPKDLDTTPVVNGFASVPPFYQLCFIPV
Chain of CYP3A4 (P08684 whole entry): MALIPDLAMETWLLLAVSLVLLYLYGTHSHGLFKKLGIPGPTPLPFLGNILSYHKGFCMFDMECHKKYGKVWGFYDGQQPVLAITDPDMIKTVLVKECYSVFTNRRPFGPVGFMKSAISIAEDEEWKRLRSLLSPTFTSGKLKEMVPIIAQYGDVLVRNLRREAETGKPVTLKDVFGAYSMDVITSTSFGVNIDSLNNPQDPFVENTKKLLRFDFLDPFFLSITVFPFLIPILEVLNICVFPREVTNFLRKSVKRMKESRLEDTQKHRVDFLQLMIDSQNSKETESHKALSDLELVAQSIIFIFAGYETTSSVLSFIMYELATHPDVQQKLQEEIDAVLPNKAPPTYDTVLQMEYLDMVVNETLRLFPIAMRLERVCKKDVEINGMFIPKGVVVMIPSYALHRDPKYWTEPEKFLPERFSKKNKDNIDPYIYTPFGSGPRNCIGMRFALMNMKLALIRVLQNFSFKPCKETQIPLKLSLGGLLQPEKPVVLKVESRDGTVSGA

`C=C(C)[C@@H]1CC[C@]2(NCCN3CCS(=O)(=O)CC3)CC[C@]3(C)[C@H](CC[C@@H]4[C@@]5(C)CC=C(C6=CC[C@@](CF)(C(=O)O)CC6)C(C)(C)[C@@H]5CC[C@]43C)[C@@H]12` [FIPRAVIRIMAT] gave an EC50 [1] of 3.6 nM, an AUC [2] of 7.368 µM·h and an EC50 [3] of 1.1 nM. For the same molecule, the EC50 [4] was 1.2 nM, the EC50 [5] was 2.7 nM and the EC50 [6] was 3 nM. For the same molecule, the half-life [7] was 4.6 h, the half-life [8] was 18.7 h and the Vdss [9] was 1 L/kg. For the same molecule, the Vdss [10] was 1.8 L/kg, the Vdss [11] was 0.43 L/kg and the bioavailability [12] was 91%. The F [13] was 117%, the bioavailability [14] was 28% and the AUC(0-t) [15] was 29.9 µM·h. It also gave an AUCt [16] of 4.3 µM·h, an AUC(0-t) [17] of 7.6 µM·h and a Cmax [18] of 2700 nM. For the same molecule, the Cmax [19] was 4300 nM, the Cmax [20] was 800 nM and the EC50 [21] was > 3000 nM. The half-life at 0.5 µM [22] was > 2 h, the half-life at 0.5 µM [23] was > 2 h and the half-life at 0.5 µM [24] was > 2 h. The half-life at 0.5 µM [25] was 1.5 h, the half-life at 0.5 µM [26] was 0.467 h and the IC50 (Cytochrome P450 1A2) was > 13300 nM. For the same molecule, the IC50 (Cytochrome P450 2C19) was > 13300 nM, the logD [27] was 4.9 and the EC50 (CYP3A4) was > 5000 nM. For the same molecule, the IC50 [28] was 3900 nM, the concentration at 24 h [29] was 1640 nM and the concentration at 24 h [30] was 68 nM. It also gave a Kd [31] of 1.4 nM.

Source: ChEMBL document CHEMBL5113515, “The Discovery of GSK3640254, a Next-Generation Inhibitor of HIV-1 Maturation” (J Med Chem, 2022)
